Laboratory results published in patent publication US20220312768A1, “COMBINATIONS OF AGROCHEMICALS WITH METABOLIC INHIBITORS” (THE BOARD OF TRUSTEES OF THE UNIVERSITY OF ARKANSAS, priority 2021, published 2022).
Where “and” joins values, the source holds several entries; their conditions need not be identical. Equal values may be shown once. Entries after “also recorded” stand apart in the source; their conditions may differ.

How the values were obtained:
Palmer amaranth [1] = system: Palmer amaranth; set-up: species or system Amaranthus palmeri; settings: in vivo
Palmer amaranth [2] = assay: Greenhouse experiment, GST blockers added to KFD-581-01, Palmer amaranth control and biomass reduction; assay type: in vivo, Amaranthus palmi; settings: for Palmer amaranth control, relative effectiveness of treatments: 7 DAA; for Palmer amaranth control versus KFD-581-01 applied alone / Reduction in above-ground biomass compared to the untreated check: 14 DAA, higher rates + KFD-581-01 300 g ai/ha
[3] = all rates (17, 34, 67 g ai/ha) + KFD-581-01 300 g ai/ha

Row | Compound | Palmer amaranth control (%) (Palmer amaranth [1]) | Palmer amaranth control, relative effectiveness of treatments (Palmer amaranth [2]; two highest rates (34 and 67 g ai/ha) + KFD-581-01 300 g ai/ha) | Palmer amaranth control versus KFD-581-01 applied alone (Palmer amaranth [2]) | Palmer amaranth control, relative effectiveness of treatments (Palmer amaranth [2]; [3]) | Efficacy at the highest rate versus low or mid rates (Palmer amaranth [2]; 67 g ai/ha versus 17 or 34 g ai/ha, + KFD-581-01 300 g ai/ha) | Reduction in above-ground biomass compared to the untreated check (Palmer amaranth [2])
1 | CP(=O)(O)CCC(N)C(=O)O (centres unmarked) [Glufosinate, 2-amino-4-[hydroxy(methyl)phosphoryl]butanoic acid] | 74% and 60% and 74b % and 60c % | – | – | – | – | –
2 | O=C(O)[C@H]1O[C@@H](Oc2cc3oc(-c4ccccc4)cc(=O)c3c(O)c2O)[C@H](O)[C@@H](O)[C@@H]1O [baicalin] | – | most effective; also recorded: more effective than any rate of curcumin or NBD-CL | increased levels of Palmer amaranth control | – | – | –
3 | O=C(O)/C=C/c1ccc(O)c(O)c1 [caffeic acid] | – | – | increased levels of Palmer amaranth control | most effective; also recorded: more effective than any rate of curcumin or NBD-CL | decreased efficacy at the highest rate | –
4 | O=c1oc2c(O)c(O)cc3c(=O)oc4c(O)c(O)cc1c4c23 [ellagic acid] | – | – | increased levels of Palmer amaranth control | most effective; also recorded: more effective than any rate of curcumin or NBD-CL | – | largest reductions in biomass
5 | O=c1c(O)c(-c2ccc(O)c(O)c2)oc2cc(O)cc(O)c12 [quercetin] | – | – | – | most effective; also recorded: more effective than any rate of curcumin or NBD-CL | – | largest reductions in biomass
